From US11351176B2, “Combination therapy” (MEI Pharma, Inc., priority 2017, dated 2022)

Tests used:
[1] = system: relapsed chronic lymphocytic leukemia (CLL); settings: combination of idelalisib and a CD20 inhibitor (e.g., rituximab or ofatumumab); cited from earlier work
[2] = system: relapsed B-cell Non-Hodgkin's Lymphoma (NHL), including Chronic Lymphocytic Leukemia (CLL); test: Phase 1b study of Compound A35 and rituximab in patients with relapsed B-cell malignancies; format: in vivo, human
Protocol: Study of a Combination of a PI3K Inhibitor and a CD20 Inhibitor in Patients with Relapsed B-Cell Non-Hodgkin's Lymphoma (NHL), Including Chronic Lymphocytic Leukemia (CLL)
The purpose of this study is to evaluate the safety and effectiveness of Compound A35 (single dose: 60 mg/day) and rituximab, in patients with relapsed B-cell malignancies.
• Study Type: Interventional • Study Design: Intervention Model: Single Group Assignment • Masking: No masking • Primary Purpose: Treatment
Primary Outcome Measures: • Determine Acceptable Adverse Events That Are Related to Treatment [Time Frame: 6 months of therapy]. To determine the incidence of adverse events, any potential abnormal laboratory results and any dose-limiting toxicities Secondary Outcome Measures: • Efficacy of Compound A35 with Rituximab as assessed by Overall Response (OR) [Time Frame: 2 years]. The efficacy of Compound A35 with Rituximab will be determined by the overall response of subjects calculated as the percent of subjects achieving a complete remission (CR) or a complete remission with incomplete marrow recovery (CRi) or a partial response (PR) according to the International Workshop on Chronic Lymphocytic Leukemia (IWCLL). • Evaluate the PK of Compound A35 with Rituximab (AUC) [Time Frame: 2 years] Determined by the Area Under the Concentration time curve (AUC) • Evaluate the PK of Compound A35 with Rituximab (Cmax) [Time Frame: 2 years] Determined by Peak Plasma Concentration (Cmax)
Eligibility • Ages Eligible for Study: 18 Years and older (Adult, Senior) • Sexes Eligible for Study: All • Accepts Healthy Volunteers: No Criteria Inclusion Criteria: • Diagnosis of relapsed/refractory CLL SLL or FL, MZL, DLBCL and high-grade B-cell lymphoma.
Dosing of Compound A35 is done on a continuous dosing schedule (CS) or an intermittent dosing schedule (IS). On an IS, patients take 60 mg administered once a day on 7 consecutive days followed by 21 days without therapy, with cycles repeated every 28 days. On a CS, patients take 60 mg/day for the entirety of a 28 day cycle. All patients are started on a CS dosing regimen. Patients who complete two cycles of CS are switched to the IS.
In all cases, the dosing of rituximab is 375 mg/m2, administered for a total of 8 doses in 6 months.
15 patients were treated with a regimen consisting of rituximab 375 mg/m^2×8 doses over 6 months and Compound A35 at 60 mg on the CS for 2 cycles then switching to the IS.

SMILES	risk of death due to infection and/or severe adverse effects (in words) [1]	response (patients with a reported response) ([2]; in combination with rituximab 375 mg/m2 x 8 doses in 6 months, Compound A35 60 mg/day continuous schedule (CS), indolent NHL (9 FL, 1 MZL), 7 of 10 patients) [%]	disease progression on the IS among patients with a disease response after 2 cycles ([2]; in combination with rituximab, 8 responders, median follow-up 5.2 months from enrollment)	patients with disease progression, discontinued from the study ([2]; in combination with rituximab, CS of Compound A35 60 mg/day, indolent NHL, 10 patients) [patient]	rate of response (in words) ([2]; in combination with rituximab, CS, patients)	patients discontinued due to disease progression ([2]; in combination with rituximab, Compound A35 60 mg/day, DLBCL, 4 patients) [patients]	response (patients with a reported response) ([2]; in combination with rituximab, Compound A35 60 mg/day, DLBCL, 1 of 4 patients) [%]	patients who developed delayed immune-related toxicity ([2]; in combination with rituximab, after 2 cycles CS switched to intermittent schedule (IS, 60 mg 7 days on/21 days off), 1/10 patients, median follow-up 3.4 months on the IS) [%]	effect of the IS on delayed onset immune toxicities and efficacy (in words) ([2]; in combination with rituximab, intermittent schedule after 2 CS cycles, preliminary data)	rate of response (in words) ([2]; in combination with rituximab, patients with relapsed indolent NHL and CLL/SLL)	durability of responses (in words) ([2]; in combination with rituximab, relapsed indolent NHL and CLL/SLL)
CC[C@H](Nc1ncnc2[nH]cnc12)c1nc2cccc(F)c2c(=O)n1-c1ccccc1 [idelalisib]	alarming increase in the risk of death due to infection and/or severe adverse effects										
CN1CCC(c2ccccc2CC(C)(C)Nc2nc(N3CCOCC3)nc(-n3c(C(F)F)nc4ccccc43)n2)CC1 [Compound A35]		70	none	1	very high rate of response	3	25	10	appears to reduce the incidence of delayed onset immune toxicities without erosion in treatment efficacy	very high rate of response	appear durable
